PubChem BioAssay (NCI)
Values joined by “and” are separate entries in the source; they are usually repeats but may differ in a detail not shown here. Equal values may be shown once.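 How tested: cells in 96-well plates exposed to compound for 48 hours at five concentrations. Abbreviation: GI50, concentration required for 50% inhibition of growth. TGI denotes the concentration required for complete inhibition of growth.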

What was measured:
Assay in all cases: growth of human tumour cells (NCI), 48 h
DU-145 prostate = system: DU-145 prostate
MALME-3M melanoma = system: MALME-3M melanoma
UO-31 renal = system: UO-31 renal
HL-60(TB) leukemia = system: HL-60(TB) leukemia
TK-10 renal = system: TK-10 renal
MDA-N = system: MDA-N
HCT-116 colon = system: HCT-116 colon
ACHN renal = system: ACHN renal
LOX IMVI melanoma = system: LOX IMVI melanoma
CAKI-1 renal = system: CAKI-1 renal

| Structure (SMILES) | TGI (DU-145 prostate) | TGI (MALME-3M melanoma) | TGI (UO-31 renal) | TGI (HL-60(TB) leukemia) | TGI (TK-10 renal) | TGI (MDA-N) | TGI (HCT-116 colon) | TGI (ACHN renal) | TGI (LOX IMVI melanoma) | TGI (CAKI-1 renal) | GI50 (CAKI-1 renal) | GI50 (TK-10 renal) | GI50 (MALME-3M melanoma) | GI50 (UO-31 renal) | GI50 (HL-60(TB) leukemia) | GI50 (MDA-N) | GI50 (HCT-116 colon) | GI50 (ACHN renal) | GI50 (LOX IMVI melanoma) | GI50 (DU-145 prostate) |
| --- | --- | --- | --- | --- | --- | --- | --- | --- | --- | --- | --- | --- | --- | --- | --- | --- | --- | --- | --- | --- |
| COc1ccc(C[n+]2cccc(O)c2)cc1 | > 100 µM | > 100 µM | > 100 µM | > 100 µM | > 100 µM | > 100 µM | > 100 µM | > 100 µM |  |  |  |  |  |  |  |  |  |  |  |  |
| Cc1cccc2c(N)c3cccc(C(=O)NCC[N+](C)(C)Cc4ccc(S(C)(=O)=O)cc4)c3nc12 | > 100 µM | > 100 µM | > 100 µM | 38.6 µM | > 100 µM | > 100 µM | > 100 µM | > 100 µM | > 100 µM | > 100 µM |  |  |  |  |  |  |  |  |  |  |
| CC(=O)c1cc(CC2Cc3cc4c(cc3C2=O)CCC4)cc2c1CCC2 (stereo not given) | > 100 µM | > 100 µM | > 100 µM | 56.2 µM | > 100 µM |  | > 100 µM | > 100 µM | > 100 µM | > 100 µM |  |  |  |  |  |  |  |  |  |  |
| CC(O)CC(=O)CO[C@H]1[C@H](O)[C@@H](O)[C@@H](O)[C@@H]2NC(=O)c3c(cc4c(c3O)OCO4)[C@H]21 (stereo not given in full) | 0.0818 µM | 0.0529 µM | 0.588 µM | 0.2 µM | 0.238 µM | 0.446 µM | 0.345 µM | 0.613 µM | 0.117 µM |  |  |  |  |  |  |  |  |  |  |  |
| O=c1oc2ccc3ccccc3c2cc1-c1nc(-c2ccc([N+](=O)[O-])cc2)n[nH]1 | > 100 µM | > 100 µM | > 100 µM | > 100 µM |  | > 100 µM | > 100 µM | > 100 µM | > 100 µM | > 100 µM |  |  |  |  |  |  |  |  |  |  |
| COC(=O)CNC(=O)CNC(=O)CSc1nnc(COc2ccc(Cl)cc2)n1-c1ccccc1 | > 100 µM | 35.3 µM | 48.6 µM |  | > 100 µM | 55.4 µM | > 100 µM | > 100 µM | 57.7 µM | 31.7 µM |  |  |  |  |  |  |  |  |  |  |
| Clc1ccc(OCc2nnc3sc(SSc4nn5c(COc6ccc(Cl)cc6)nnc5s4)nn23)cc1 | > 100 µM | > 100 µM | > 100 µM | > 100 µM | > 100 µM |  | > 100 µM | > 100 µM | > 100 µM | > 100 µM | 77.3 µM | 73.2 µM |  |  |  |  |  |  |  |  |
| CC(=O)c1cc2c(s1)C(=O)c1ccsc1C2=O | 0.743 µM | 0.332 µM | 0.597 µM | 0.369 µM | 3.69 µM | 0.197 µM | 1.59 µM | 0.626 µM | 0.0782 µM | 4.29 µM |  |  |  |  |  |  |  |  |  |  |
| O=C1NC(=S)N/C1=C\c1ccc(Cl)cc1 | > 100 µM | > 100 µM | > 100 µM |  | > 100 µM | > 100 µM | > 100 µM |  | > 100 µM | > 100 µM |  |  |  |  |  |  |  |  |  |  |
| CSCCC(NC(=O)Cc1ccc(C(=O)c2ccccc2)cc1)C(=O)N1CCN(CCCCN2c3ccccc3Sc3cc(N=[N+]=[N-])ccc32)CC1 (stereo not given) | > 100 µM | > 100 µM | > 100 µM | > 100 µM | > 100 µM |  | > 100 µM | > 100 µM | > 100 µM | > 100 µM |  |  |  |  |  |  |  |  |  |  |
| CC[C@@]1(O)C(=O)OCc2c1cc1n(c2=O)Cc2cc3c(CN(C)C)c(O)ccc3nc2-1 |  |  | 0.273 µM and 1.89 µM and 0.607 µM |  | 14.2 µM and 64.8 µM and 88.7 µM | 0.777 µM and 5.2 µM and 0.902 µM | 18.9 µM and 11.7 µM |  | 362 nM [middle of 4 runs] |  | < 0.01 µM and 0.00506 µM |  | 0.0881 µM and 0.157 µM and 0.39 µM | 0.0169 µM and 0.118 µM and 0.0299 µM | 0.0103 µM and 0.00542 µM | 0.0241 µM and 0.119 µM and 0.0221 µM | 0.0681 µM | < 0.01 µM and 0.00474 µM and 0.0188 µM |  |  |
| Cc1cc(O)c2c(c1)C(C1OC(CO)C(O)C(O)C1O)c1cc(O)cc(O)c1C2=O (stereo not given) | > 100 µM | > 100 µM | > 100 µM | > 100 µM | > 100 µM | > 100 µM | > 100 µM | > 100 µM |  |  |  |  |  |  |  |  |  |  |  |  |
| CCCCC(O)(c1ccccc1)C(O)(c1ccccc1)c1c(F)c(F)c(F)c(F)c1F (stereo not given) | > 100 µM | 32.6 µM | 88.4 µM | 61.9 µM | 84.8 µM | 39.3 µM | 65 µM | 72.6 µM |  |  |  |  |  |  |  |  |  |  |  |  |
| C=C1C2C[C@@H]3O[C@H]4C[C@H]5O[C@@]6(C[C@@H]7O[C@]8(C[C@H](C)[C@@H]9O[C@@H]%10CC(C=O)O[C@@H]%10C[C@@H]9O8)C[C@H](C)[C@@H]7O6)C[C@H]5O[C@H]4[C@H](C)[C@H]3OC(=O)C[C@H]3CC[C@@H]4OC5[C@H]6O[C@]7(CC[C@H]8CC(=C)[C@H](CC[C@@H](C[C@H]1C)O2)O8)CC6O[C@@H]5[C@@H](O7)[C@H]4O3 (stereo not given in full) | > 1 µM |  | > 1 µM |  | > 1 µM | < 0.0001 µM | > 1 µM | > 1 µM |  | > 1 µM |  |  |  |  |  |  |  |  |  |  |
| O=c1ccn(Cc2ccccc2CCl)c(=O)[nH]1 | > 100 µM | 40.6 µM | 77.3 µM | > 100 µM | > 100 µM |  | 46 µM | 75.6 µM |  | 64 µM |  |  |  |  |  |  |  |  |  |  |
| COC(=O)CN=C1NC(=S)N(Cc2ccc(OC)cc2)C12CCCC2 | > 100 µM | > 100 µM | > 100 µM |  |  | > 100 µM | > 100 µM | > 100 µM |  | > 100 µM |  |  |  |  |  |  |  |  |  |  |
| CCCCCCCCCC(=O)NCCc1c[nH]c2ccc(OC)cc12 | 42.1 µM | 34.3 µM | 26.1 µM |  | 35.1 µM | 35.5 µM | 43.5 µM | 30.6 µM | 27.6 µM | 65.6 µM |  |  |  |  |  |  |  |  |  |  |
| O=C1CNc2cc(N3CCOCC3)ccc2N1 | > 100 µM | > 100 µM | > 100 µM | > 100 µM | > 100 µM |  | > 100 µM | > 100 µM | > 100 µM | > 100 µM |  |  |  |  |  |  |  |  |  |  |
| CCOc1ccc(N2C(=O)NC3(c4ccccc4)N(C)C(=O)N(C)C23c2ccccc2)cc1 (stereo not given) | > 100 µM | > 100 µM | > 100 µM | > 100 µM |  | > 100 µM | > 100 µM | > 100 µM | > 100 µM | > 100 µM |  |  |  |  |  |  |  |  |  |  |
| Clc1ccc(C2CC(c3cccc(Nc4ccncc4)c3)=NN2c2ccccc2)cc1 (stereo not given) | 3.27 µM | 3.14 µM | 2.79 µM | 3.87 µM | 3.45 µM |  | 2.98 µM | 3.02 µM | 3.06 µM | 2.84 µM | 1.5 µM | 1.83 µM | 1.58 µM | 1.47 µM | 1.71 µM |  | 1.48 µM | 1.66 µM | 1.64 µM | 1.73 µM |
| CCCCCCc1cc2cc(C(=O)NCc3ccccc3)c(=N)oc2cc1O | > 100 µM | > 100 µM |  | > 100 µM |  | > 100 µM | > 100 µM | > 100 µM | > 100 µM | > 100 µM |  |  |  |  |  |  |  |  |  |  |
